The test system of one test is A375. As to the kind of experiment: Photo- and cytotoxic activity determination (MTT), A375 cells. The class given is cell-based, human. Conditions: normoxia; for IC50: Homo sapiens, A-375, 48 h drug-free medium. A digest of the protocol:
(§1)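 Green-light photocytotoxicity: 1 h dark preincubation with compound, 1 h light (520 nm, 1.5 mW/cm^2), 48 h recovery, MTT at 570 nm; dark controls run in parallel. IC50 fitted to inhibition curves.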

In the next test the test system is HeLa. Put plainly: Photo- and cytotoxic activity determination (MTT), HeLa cells. Conditions: normoxia; for IC50: Homo sapiens, HeLa, 48 h drug-free medium. Type of test: cell-based. In short, it runs like this:
as §1

The next test concerns A2780. Put plainly: Photo- and cytotoxic activity determination (MTT), A2780 cells. Type of test: cell-based. Conditions: normoxia; for IC50: Homo sapiens, A2780, 48 h drug-free medium. A digest of the protocol:
as §1

The next test concerns A2780cis cells. Put plainly: Photo- and cytotoxic activity determination (MTT), A2780cis cells, normoxia or hypoxia. Type of test: cell-based. The conditions noted are these: for inhibition at 250 µM: 2 h incubation in the dark, 48 h drug-free recovery. In short, it runs like this:
as §1

Setting [1] is: 520 nm, dark tested up to 100 μM.

Each structure is given as a SMILES string. Where two headings read alike, the source gives them in different places.

As a reminder, the IC50 is the point on the concentration scale where inhibition reaches its midpoint. Usually inhibition stands for the percentage by which the read-out fell short of the control. As to `CCN(CC)c1ccc2c(c1)O/C(=C(/C#N)c1cc[n+](C)cc1)C=C2C` [1a], the concentration for half-maximal inhibition (IC50) in the test on A375 (1 h incubation + 1 h green light 520 nm, 1.5 mW cm^–2, read-out: A375 light IC50) is 1.1 ± 0.1 µM; in the test on A375 (kept in the dark, 2 h treatment, read-out: A375 dark IC50), above 100 µM; in the test on HeLa (1 h incubation + 1 h green light 520 nm, 1.5 mW cm^–2, read-out: HeLa light IC50), 5.8 ± 0.4 µM; in the test on HeLa (kept in the dark, 2 h treatment, read-out: HeLa dark IC50), above 100 µM; with A2780 (1 h incubation + 1 h green light 520 nm, 1.5 mW cm^–2, read-out: A2780 light IC50), 5.2 ± 0.5 µM; in the test on A2780 (kept in the dark, 2 h treatment, read-out: A2780 dark IC50) it was above 100 µM. The concentration for half-maximal inhibition (IC50) was above 250 µM in the test with A2780cis cells (A2780cis, hypoxia 2% O2, dark, tested up to 250 μM, read-out: Hypoxia Dark IC50); 2.5 ± 0.2 µM in the test with A2780cis cells (A2780cis, hypoxia, 520 nm, read-out: A2780cis Light 520 nm IC50 (microM) Hypoxia); above 250 µM in the test on A2780cis cells (A2780cis, hypoxia, dark, read-out: A2780cis Dark IC50 (microM) Hypoxia); above 250 µM in the test with A2780cis cells (A2780cis, normoxia 21% O2, dark, tested up to 250 μM, read-out: Normoxia Dark IC50); 2.1 ± 0.2 µM with A2780cis cells (A2780cis, normoxia, 1 h incubation + 1 h green light 520 nm, 1.5 mW cm^–2, 48 h drug-free medium, read-out: A2780cis light IC50); above 250 µM in the test with A2780cis cells (A2780cis, normoxia, dark, up to 250 microM, read-out: A2780cis Dark IC50 (microM) Normoxia). Moreover, the concentration for half-maximal inhibition (IC50) in the test on A2780cis cells (A2780cis, normoxia, kept in the dark, tested up to 100 μM, 2 h treatment, 48 h drug-free medium, read-out: A2780cis dark IC50) was above 100 µM. The “A375 PI (phototherapeutic index), IC50 dark/IC50 irradiated” value in the test with A375 (setting [1]) was above 89. Also, the “HeLa PI (phototherapeutic index), IC50 dark/IC50 irradiated” value with HeLa (setting [1]) is recorded as above 17. For the same compound, the “A2780 PI (phototherapeutic index), IC50 dark/IC50 irradiated” value with A2780 (setting [1]) is reported as above 19. The inhibition at 250 µM with A2780cis cells (A2780cis, hypoxia, read-out: Partial inhibition (% of cell growth inhibition with respect to untreated controls), Hypoxia) turned out to be 2.1 ± 0.4%; in the test on A2780cis cells (A2780cis, normoxia, read-out: Partial inhibition (% of cell growth inhibition with respect to untreated controls), Normoxia), 3.5 ± 0.9%. Besides, the “Hypoxia PI (phototherapeutic index)” value with A2780cis cells (A2780cis, hypoxia 2% O2, 520 nm, dark tested up to 250 μM) is reported as above 100.0. In addition, the “Normoxia PI (phototherapeutic index)” value in the test on A2780cis cells (A2780cis, normoxia 21% O2, 520 nm, dark tested up to 250 μM) was above 119.1. The “A2780cis PI (phototherapeutic index), IC50 dark/IC50 irradiated” value with A2780cis cells (normoxia, 520 nm, dark tested up to 100 μM) is listed as above 48.

The values are drawn from paper PMC10291553, “Exploring Structure–Activity Relationships in Photodynamic Therapy Anticancer Agents Based on Ir(III)-COUPY Conjugates” (Journal of Medicinal Chemistry, 2023).
